We go through three molecules from patent US8889370B2, “Method of determining inhibitors of coagulation” (Siemens Healthcare Diagnostics Products GmbH, priority 2010, dated 2014).

Assay [1] addresses T1, F Xa (Homo sapiens, UniProt P00742). Conditions: Prasa et al. 1997; Perzborn 2009; read-out: binding constant for F Xa; cited from earlier work.
Assay [2] addresses T1, F Xa. In words: LOCI chemiluminescence competition assay for F Xa inhibitors in standard human plasma, ligand B-r-G-R-H. Format: binding. Set-up: 10 μl of a reagent containing human F Xa (approx. 1000 IU/l). Conditions: standard human plasma with increasing inhibitor concentrations, anti-F Xa antibody-coated Chemibeads, FIG. 9. The procedure: The signal-producing system used was the LOCI system according to example 4.
The Chemibeads used herein were additionally coated with a commercially available polyclonal antibody to F Xa. For this, the antibody was linked covalently to the latex particles in a coupling ratio of 10 mg of antibody to […] of particles. The Sensibeads used herein were additionally coated with streptavidin.
The ligand used was the biotinylated peptide aldehyde biotinyl-Ttds-D-Arg-Gly-Arg-H (B-r-G-R—H).
In the absence of an F Xa inhibitor, the ligand binds, via its biotin residue, to the streptavidin-coated Sensibeads and, via its peptide moiety, to the F Xa which itself binds to the antibody-coated Chemibeads, and a chemiluminescence signal is generated (see also FIG. 1).
10 μl of a reagent containing human F Xa (approx. 1000 IU/l) and fibrin polymerization inhibitor peptide glycine-proline-arginine-proline (10 mg/ml) were admixed with 2 μl of sample, 20 μl of Chemibeads (400 μg/ml) and 10 μl of the ligand (6 μM) and incubated for 5 minutes. After addition of 60 μl of Sensibeads (200 μg/ml) and incubation for 10 minutes, the mix was filled with water to 260 μl and the chemiluminescence signal was measured. As FIG. 9 indicates, the chemiluminescence signal is reduced as a function of the type and concentration of the direct F Xa and thrombin inhibitors metered in.

Another assay addresses thrombin (Homo sapiens, UniProt P00734). The arrangement: binding constant for thrombin: unit not given here. The conditions noted are these: cited from earlier work.

On to `CC1CNc2c(cccc2S(=O)(=O)N[C@@H](CCCNC(=N)N)C(=O)N2CC[C@@H](C)C[C@@H]2C(=O)O)C1` (stereo partly drawn) [argatroban], for which the Ki on F Xa [1] is 210 µM. Besides, the chemiluminescence signal entry on F Xa [2] is recorded as “not reduced”.
Take `O=C(NC[C@H]1CN(c2ccc(N3CCOCC3=O)cc2)C(=O)O1)c1ccc(Cl)s1` [rivaroxaban]: on F Xa [2], the chemiluminescence signal result is given as “inversely proportional”. Further, at thrombin (Perzborn 2009), the “binding to thrombin, times more weakly than to F Xa” value is recorded as “up to 10 000 times”.
With hirudin, at F Xa [2], the chemiluminescence signal entry was “not reduced”. Besides, the “binding constant for thrombin” value at thrombin (Prasa et al. 1997) is reported as 2.7×10^−14.
